Reference: PubChem BioAssay AID624129 (Sanford-Burnham Center for Chemical Genomics, 2012)
Activity calls are given as the source filed them. No rule for the calls is given here.

How the values were obtained:
Test in all cases: CXCR6 receptor antagonists, dose response, cell-based, beta-arrestin, DiscoveRx, APJ panel, uHTS hits (AID 624129)
[1] = target: C-X-C chemokine receptor type 6 (Homo sapiens) (UniProt O00574); conditions: CXCR6 beta-arrestin (DiscoveRx) antagonist cell assay; for inhibition: CXCR6, run 1, dose range 2, at 80 µM (top of the series)
[2] = target: Beta-galactosidase (Escherichia coli) (UniProt Q8VNN2); conditions: CXCR6 beta-arrestin (DiscoveRx) antagonist cell assay, b-galactosidase
[3] = target: C-C chemokine receptor type 6 (Homo sapiens) (UniProt P51684); conditions: CXCR6 beta-arrestin (DiscoveRx) antagonist cell assay
[4] = target: Apelin receptor (Homo sapiens) (UniProt P35414); conditions: CXCR6 beta-arrestin (DiscoveRx) antagonist cell assay, APJ
[5] = CXCR6, dose range 1, mean IC50 across replicates
[6] = dose range 1, mean IC50 across replicates
[7] = CCR6, dose range 1, mean IC50 across replicates

Chain of Beta-galactosidase (Escherichia coli) (Q8VNN2 whole entry, looked up): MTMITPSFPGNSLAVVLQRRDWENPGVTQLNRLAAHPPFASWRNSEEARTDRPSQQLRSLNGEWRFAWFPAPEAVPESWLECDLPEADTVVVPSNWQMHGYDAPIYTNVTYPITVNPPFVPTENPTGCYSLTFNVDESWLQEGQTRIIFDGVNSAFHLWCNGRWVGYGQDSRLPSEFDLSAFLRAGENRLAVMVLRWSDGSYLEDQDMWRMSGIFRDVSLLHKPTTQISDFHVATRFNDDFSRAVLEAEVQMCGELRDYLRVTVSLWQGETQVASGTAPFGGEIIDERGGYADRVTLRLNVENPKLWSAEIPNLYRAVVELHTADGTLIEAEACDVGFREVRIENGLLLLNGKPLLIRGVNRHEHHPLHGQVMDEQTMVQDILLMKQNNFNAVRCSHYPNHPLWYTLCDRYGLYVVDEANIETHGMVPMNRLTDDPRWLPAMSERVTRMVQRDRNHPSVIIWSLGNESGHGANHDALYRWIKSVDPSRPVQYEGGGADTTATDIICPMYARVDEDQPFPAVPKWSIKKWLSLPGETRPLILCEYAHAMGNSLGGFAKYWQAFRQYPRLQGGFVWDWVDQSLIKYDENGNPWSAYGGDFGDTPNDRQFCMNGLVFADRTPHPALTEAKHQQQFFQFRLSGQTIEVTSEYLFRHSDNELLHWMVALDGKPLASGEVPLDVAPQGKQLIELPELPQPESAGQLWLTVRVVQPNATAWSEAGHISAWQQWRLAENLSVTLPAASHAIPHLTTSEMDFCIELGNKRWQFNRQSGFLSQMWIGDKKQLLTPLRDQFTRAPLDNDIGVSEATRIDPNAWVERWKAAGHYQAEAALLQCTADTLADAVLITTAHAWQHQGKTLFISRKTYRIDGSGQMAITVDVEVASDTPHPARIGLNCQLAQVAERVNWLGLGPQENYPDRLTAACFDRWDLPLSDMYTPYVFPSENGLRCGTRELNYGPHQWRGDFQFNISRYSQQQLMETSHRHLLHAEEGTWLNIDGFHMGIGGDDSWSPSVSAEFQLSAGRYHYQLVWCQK
Chain of C-X-C chemokine receptor type 6 (Homo sapiens) (O00574 whole entry, looked up): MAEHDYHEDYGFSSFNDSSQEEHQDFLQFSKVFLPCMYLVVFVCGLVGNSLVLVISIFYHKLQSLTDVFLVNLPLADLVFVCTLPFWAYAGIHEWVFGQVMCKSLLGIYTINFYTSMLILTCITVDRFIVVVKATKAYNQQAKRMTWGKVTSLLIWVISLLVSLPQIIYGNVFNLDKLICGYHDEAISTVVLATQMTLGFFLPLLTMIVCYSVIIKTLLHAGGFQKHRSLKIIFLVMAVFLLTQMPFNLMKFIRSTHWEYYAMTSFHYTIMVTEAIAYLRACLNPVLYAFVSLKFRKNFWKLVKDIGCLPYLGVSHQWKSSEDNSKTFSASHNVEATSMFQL

SMILES	IC50 ([1]; CXCR6, dose range 1)	IC50 [1, 5]	IC50 ([1]; CXCR6, run 1, dose range 2)	IC50 ([1]; CXCR6, run 2, dose range 1)	IC50 ([1]; CXCR6, run 2, dose range 2)	IC50 ([2]; dose range 1)	IC50 [2, 6]	IC50 ([3]; CCR6, dose range 1)	IC50 [3, 7]	IC50 ([3]; CCR6, run 2, dose range 1)	IC50 ([4]; dose range 1)	IC50 [4, 6]	IC50 ([4]; run 2, dose range 1)	IC50 ([4]; run 3, dose range 1)	inhibition [1]
Fc1ccc(NC(=S)Nc2nccs2)cc1	inactive	14.1 µM	8.52 µM	14 µM	13.3 µM	> 80 µM (inactive)	> 80 µM	10.8 µM	12.6 µM	14.3 µM	13.6 µM	13.7 µM	14.1 µM	13.3 µM	–
N#CC(C#N)=C1C=CC=CN1/C(=C\c1ccccc1Cl)C(=O)c1ccccc1	7.69 µM	9.06 µM	9.82 µM	7.88 µM	10.8 µM	> 80 µM (inactive)	> 80 µM	7.75 µM	6.75 µM	5.76 µM	14.4 µM	14.5 µM	11.7 µM	17.5 µM	–
CCS(=O)(=O)c1ncc(Cl)c(C(=O)Nc2ccc(S(=O)(=O)N(C)c3ccccc3)cc2)n1	6.29 µM	6.61 µM	6.87 µM	6.54 µM	6.76 µM	> 80 µM (inactive)	> 80 µM	4.87 µM	4.8 µM	4.74 µM	5.02 µM	5.55 µM	5.84 µM	5.8 µM	–
COc1ccc([N+](=O)[O-])c(S(=O)(=O)c2ccc(Cl)cc2)n1	inactive	51.9 µM	–	61.5 µM	–	> 80 µM (inactive)	> 80 µM	69.3 µM	62.5 µM	55.8 µM	47.2 µM	49.4 µM	51.5 µM	> 80 µM	75.8%
COc1ccc([N+](=O)[O-])c(S(=O)(=O)c2ccccc2)n1	inactive	35.4 µM	–	24.9 µM	–	inactive	50.7 µM	22.6 µM	19.5 µM	16.5 µM	21.5 µM	22.9 µM	> 80 µM	24.4 µM	102%
COc1cc(C(=O)NC2CC3CCCC(C2)N3CC(=O)Nc2ccccc2)cc(OC)c1OC (centres undefined)	13.5 µM	10.7 µM	12.3 µM	10.7 µM	6.07 µM	> 80 µM (inactive)	> 80 µM	> 80 µM (inactive)	> 80 µM	> 80 µM	> 80 µM (inactive)	> 80 µM	> 80 µM	> 80 µM	–
O=[N+]([O-])c1c(NCCCO)cc(Sc2ccc(Cl)cc2)c2nonc12	inactive	11.3 µM	3.9 µM	> 80 µM	3.24 µM	> 80 µM (inactive)	> 80 µM	2.58 µM	12.9 µM	23.2 µM	> 80 µM (inactive)	> 80 µM	> 80 µM	> 80 µM	–
FC(F)(F)c1cnc(NNC(=S)Nc2ccccc2Cl)c(Cl)c1	> 80 µM (inactive)	> 80 µM	–	> 80 µM	–	> 80 µM (inactive)	> 80 µM	–	> 80 µM	> 80 µM	–	> 80 µM	> 80 µM	> 80 µM	2.4%
Cc1c(Nc2cc(Cl)c3nonc3c2[N+](=O)[O-])c(=O)n(-c2ccccc2)n1C	3.95 µM	3.92 µM	3.59 µM	4.6 µM	3.57 µM	> 80 µM (inactive)	> 80 µM	3.16 µM	3.35 µM	3.55 µM	4.55 µM	4.26 µM	4.09 µM	4.16 µM	–
O=S(=O)(Nc1cccc2cccnc12)c1ccccc1	inactive	14.5 µM	–	14.5 µM	–	> 80 µM (inactive)	> 80 µM	7.66 µM	9.73 µM	11.8 µM	6.46 µM	9.91 µM	10.7 µM	12.5 µM	116%
O=C(C#Cc1ccccc1)c1ccc([N+](=O)[O-])cc1	2.67 µM	2.62 µM	–	2.57 µM	–	> 80 µM (inactive)	> 80 µM	1.46 µM	1.72 µM	1.98 µM	4.35 µM	4.53 µM	5.55 µM	3.7 µM	131%
CCS(=O)(=O)c1ncc(Cl)c(C(=O)Nc2ccc(S(=O)(=O)N3CCC(C)CC3)cc2)n1	7.4 µM	8.21 µM	8.3 µM	7.89 µM	9.26 µM	> 80 µM (inactive)	> 80 µM	5.88 µM	5.71 µM	5.55 µM	7.82 µM	7.15 µM	6.41 µM	7.21 µM	–
CCc1cc2c(=O)[nH]c(-c3ccccn3)nc2s1	2.61 µM	1.76 µM	1.4 µM	1.74 µM	1.28 µM	> 80 µM (inactive)	> 80 µM	1.76 µM	2.43 µM	3.1 µM	1.79 µM	2.03 µM	2.16 µM	2.13 µM	–
C=C1CC(COc2cc(=O)oc3ccccc23)(c2ccccc2)OC1=O (centres undefined)	7.8 µM	6.87 µM	6.11 µM	7.9 µM	5.67 µM	> 80 µM (inactive)	> 80 µM	6.18 µM	6.81 µM	7.45 µM	11 µM	9.89 µM	7.31 µM	11.3 µM	–
Cc1ccnc(N2C(=O)c3cccc4c([N+](=O)[O-])ccc(c34)C2=O)c1	4.5 µM	3.54 µM	–	2.58 µM	–	> 80 µM (inactive)	> 80 µM	2.2 µM	2.6 µM	3 µM	4.63 µM	5.01 µM	5.47 µM	4.92 µM	129%
CNC(=O)c1nnsc1S(=O)(=O)c1ccc(Cl)cc1	inactive	12.1 µM	–	10.7 µM	–	> 80 µM (inactive)	> 80 µM	10.5 µM	12 µM	13.5 µM	14.3 µM	15.7 µM	16.1 µM	16.5 µM	116%
C/C(=N\NC(=O)C1COc2ccccc2O1)c1ccccn1 (centres undefined)	inactive	15.5 µM	3.86 µM	12.6 µM	3.74 µM	> 80 µM (inactive)	> 80 µM	3.22 µM	3.87 µM	4.51 µM	5.83 µM	5.59 µM	4.73 µM	6.22 µM	–
O=C(NNC(=O)C12CC3CC(CC(C3)C1)C2)c1ccccn1	18.7 µM	10.9 µM	5.57 µM	8.52 µM	10.9 µM	> 80 µM (inactive)	> 80 µM	8.92 µM	8.58 µM	8.23 µM	10.3 µM	9.16 µM	8.53 µM	8.62 µM	–
CC(=O)OCCNc1cc(SCc2ccco2)c2nonc2c1[N+](=O)[O-]	inactive	15.4 µM	–	16.6 µM	–	> 80 µM (inactive)	> 80 µM	13.8 µM	14 µM	14.2 µM	21.1 µM	18.8 µM	17.8 µM	17.5 µM	74.8%
Cc1ccc2c(Cl)cc(Cl)c(O)c2n1	4.4 µM	3.59 µM	3.41 µM	> 80 µM	2.96 µM	> 80 µM (inactive)	> 80 µM	3.37 µM	3.57 µM	3.77 µM	2.79 µM	5.05 µM	5.23 µM	7.12 µM	–
O=C(N/N=C(\c1ccccc1)c1cccnc1)c1cccc(F)c1	4.5 µM	4.01 µM	3.07 µM	5.13 µM	3.34 µM	> 80 µM (inactive)	> 80 µM	4.35 µM	4.64 µM	4.93 µM	4.18 µM	4.46 µM	5.15 µM	4.05 µM	–
